Results from PMC5867624, “Molecular Characterization of a Novel N-Acetylneuraminate Lyase from a Deep-Sea Symbiotic Mycoplasma” (Marine Drugs, 2018).

Experiments:
MyNal [1] = biological target: T1, MyNal (Mycoplasma sp., UniProt A0A2P1G7E2); test: HPLC of Neu5Ac formed, synthesis; parameters: gene nanA; conditions: synthesis direction; 20 mM pyruvate fixed; 20 mM phosphate pH 7.0; optimal temperature (65 °C)
MyNal [2] = biological target: T1, MyNal; test: LDH/NADH coupled spectrophotometric assay, […] nm, cleavage; assay type: biochemical; parameters: gene nanA; full-length gene (885 bp) in pET-32a(+), fusion tags kept, about 52 kDa, E. coli BL21(DE3), Ni-NTA; conditions: cleavage direction; 20 mM phosphate pH 7.0; optimal temperature and pH (optimum 70 °C)
CC(=O)C(=O)O = test: purified protein; conditions: synthesis direction, 20 mM ManNAc fixed, 20 mM phosphate pH 7.0, optimal temperature (65 °C)

T1 sequence (A0A2P1G7E2 1-294): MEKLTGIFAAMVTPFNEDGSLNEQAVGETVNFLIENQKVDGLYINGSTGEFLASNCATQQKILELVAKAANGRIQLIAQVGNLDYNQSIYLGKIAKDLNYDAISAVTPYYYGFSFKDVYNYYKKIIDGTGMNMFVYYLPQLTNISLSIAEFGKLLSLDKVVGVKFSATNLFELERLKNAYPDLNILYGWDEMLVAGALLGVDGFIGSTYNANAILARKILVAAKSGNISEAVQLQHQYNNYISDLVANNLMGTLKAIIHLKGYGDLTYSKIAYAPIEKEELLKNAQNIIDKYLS

Compound CC(=O)N[C@@H]1C(O)O[C@H](CO)[C@@H](O)[C@@H]1O (stereo partly drawn) [ManNAc] has a Km (MyNal [1]) of 6.9 ± 0.5 mM.
CC(=O)N[C@H]1[C@H]([C@H](O)[C@H](O)CO)OC(O)(C(=O)O)C[C@@H]1O (stereo partly drawn) [Neu5Ac] showed a Km (MyNal [2]) of 1.8 ± 0.2 mM.
In the case of MyNal (Mycoplasma sp.), the Km (CC(=O)C(=O)O) is reported as 5.9 ± 0.9 mM.
